Source: ChEMBL document CHEMBL4819022, “Discovery of JNJ-63576253: A Clinical Stage Androgen Receptor Antagonist for F877L Mutant and Wild-Type Castration-Resistant Prostate Cancer (mCRPC)” (J Med Chem, 2021)
Active and inactive are the calls of the source. The rule behind the calls is not given here.

How the values were obtained:
Androgen receptor = Androgen receptor (Homo sapiens, UniProt P10275, F877L)
[1] = target: T1, Androgen receptor (Rattus norvegicus) (UniProt P15207); conditions: Sprague-Dawley, dose 30.0 mg/kg, time 10.0 day
T1 sequence (whole entry): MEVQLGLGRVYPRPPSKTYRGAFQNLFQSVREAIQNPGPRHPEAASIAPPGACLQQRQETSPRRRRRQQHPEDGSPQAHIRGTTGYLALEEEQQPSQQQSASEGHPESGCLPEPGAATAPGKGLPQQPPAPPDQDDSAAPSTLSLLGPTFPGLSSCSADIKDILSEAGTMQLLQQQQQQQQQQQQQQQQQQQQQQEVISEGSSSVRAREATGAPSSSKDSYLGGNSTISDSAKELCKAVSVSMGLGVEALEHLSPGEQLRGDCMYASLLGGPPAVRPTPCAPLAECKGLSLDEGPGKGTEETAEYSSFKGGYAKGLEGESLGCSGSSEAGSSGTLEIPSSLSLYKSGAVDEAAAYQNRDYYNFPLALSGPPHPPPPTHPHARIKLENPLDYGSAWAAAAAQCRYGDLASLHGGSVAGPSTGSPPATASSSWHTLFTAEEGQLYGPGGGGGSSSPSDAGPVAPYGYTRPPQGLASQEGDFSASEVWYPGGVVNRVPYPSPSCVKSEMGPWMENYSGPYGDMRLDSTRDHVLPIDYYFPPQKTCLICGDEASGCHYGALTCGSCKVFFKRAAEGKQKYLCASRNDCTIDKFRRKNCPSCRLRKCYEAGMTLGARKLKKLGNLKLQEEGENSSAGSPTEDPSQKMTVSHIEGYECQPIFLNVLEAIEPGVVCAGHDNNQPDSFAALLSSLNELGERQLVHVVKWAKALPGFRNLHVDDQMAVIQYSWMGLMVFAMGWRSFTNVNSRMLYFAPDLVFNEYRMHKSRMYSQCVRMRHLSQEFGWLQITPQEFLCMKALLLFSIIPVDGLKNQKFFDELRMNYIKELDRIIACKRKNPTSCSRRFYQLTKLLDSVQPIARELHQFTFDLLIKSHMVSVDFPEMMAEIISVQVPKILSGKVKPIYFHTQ

[2] = target: T1, Androgen receptor (Rattus norvegicus); conditions: Sprague-Dawley, dose 30.0 mg/kg, time 10.0 day; remark: listed apart in the source
[3] = Clearance in CD1 mouse at 2 mg/kg, iv; assay type: ADME, organism-based; conditions: in vivo
[4] = Volume of distribution at steady state in CD1 mouse at 2 mg/kg, iv; assay type: ADME, organism-based; conditions: in vivo, read-out: Vdss
[5] = Cmax in CD1 mouse at 10 mg/kg, po; assay type: ADME, organism-based; parameters: route oral, dose 10 mg/kg; conditions: in vivo
[6] = AUC(0 to last) in CD1 mouse at 10 mg/kg, po; assay type: ADME, organism-based; parameters: route oral, time 0 - last, dose 10 mg/kg; conditions: CD1, mouse, in vivo
[7] = Apparent passive permeability from apical to basolateral side in MDCK-MDR1 cells in presence P-gp inhibitor; assay type: ADME, cell-based, Canis lupus familiaris; conditions: dog, MDCK-MDR1, with P-gp inhibitor (name and concentration not stated)
[8] = target: T1, Androgen receptor (Rattus norvegicus); conditions: Sprague-Dawley, dose 30.0 mg/kg, time 10.0 day; remark: listed apart in the source
[9] = system: liver microsomes (Homo sapiens); assay: Half life in human liver microsomes
[10] = Half life in CD1 mouse at 2 mg/kg, iv; assay type: ADME, organism-based; conditions: in vivo
VCaP = assay: Antiproliferative activity against human VCaP cells expressing wild-type androgen receptor assessed as reduction in cell viability incubated for 5 days in presence of R1881 by CellTiter-glo assay; assay type: functional, cell-based; conditions: 120 h
[11] = Oral bioavailability in CD1 mouse at 10 mg/kg; assay type: ADME, organism-based; conditions: CD1, mouse, in vivo
[12] = target: T1, Androgen receptor (Rattus norvegicus); conditions: Sprague-Dawley, dose 30.0 mg/kg, time 10.0 day; remark: listed apart in the source
[13] = target: T1, Androgen receptor (Rattus norvegicus); conditions: Sprague-Dawley, dose 30.0 mg/kg, time 10.0 day; remark: listed apart in the source
[14] = system: T2, Androgen receptor (Homo sapiens), P10275 [F877L]; assay: Antagonist activity at AR F877L mutant (unknown origin) transfected in human LNCAP cells cotransfected with ARE-LUC incubated for 20 to 24 hrs in presence of AR agonist R1881 by steady-glo luciferase reporter gene assay relative to control; assay type: cell-based; conditions: filed as antagonist, time 20-24 hrs
T2 sequence (whole entry): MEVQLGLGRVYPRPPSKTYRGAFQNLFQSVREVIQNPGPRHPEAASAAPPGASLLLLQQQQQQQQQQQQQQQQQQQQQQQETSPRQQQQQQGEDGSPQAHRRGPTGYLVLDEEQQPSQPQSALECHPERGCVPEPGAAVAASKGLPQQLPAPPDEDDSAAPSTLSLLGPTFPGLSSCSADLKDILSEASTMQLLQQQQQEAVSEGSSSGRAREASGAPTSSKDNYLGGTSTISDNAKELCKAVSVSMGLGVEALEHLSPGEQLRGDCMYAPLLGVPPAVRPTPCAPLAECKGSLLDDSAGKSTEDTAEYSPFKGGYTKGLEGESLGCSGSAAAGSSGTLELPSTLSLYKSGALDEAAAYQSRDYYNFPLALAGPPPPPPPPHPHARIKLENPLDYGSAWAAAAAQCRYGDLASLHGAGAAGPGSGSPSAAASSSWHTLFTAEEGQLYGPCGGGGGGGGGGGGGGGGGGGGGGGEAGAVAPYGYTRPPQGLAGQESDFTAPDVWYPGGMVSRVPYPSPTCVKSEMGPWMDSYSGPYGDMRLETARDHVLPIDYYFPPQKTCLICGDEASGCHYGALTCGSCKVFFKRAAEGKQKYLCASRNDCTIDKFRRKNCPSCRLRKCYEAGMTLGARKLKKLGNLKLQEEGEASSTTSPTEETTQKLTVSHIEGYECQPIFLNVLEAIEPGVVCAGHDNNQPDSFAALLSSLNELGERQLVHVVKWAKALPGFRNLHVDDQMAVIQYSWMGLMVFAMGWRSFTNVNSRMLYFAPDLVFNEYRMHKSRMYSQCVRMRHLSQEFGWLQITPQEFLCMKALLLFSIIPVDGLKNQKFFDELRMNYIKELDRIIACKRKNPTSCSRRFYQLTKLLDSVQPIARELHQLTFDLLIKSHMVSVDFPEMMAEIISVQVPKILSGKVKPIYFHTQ

[15] = Drug metabolism in dog liver microsomes assessed as unchanged parent compound at 10 uM incubated for 60 mins in presence of glutathione and NADPH by LC-MS/MS analysis; assay type: ADME, Canis lupus familiaris, Microsome; conditions: read-out: Drug metabolism
[16] = Drug metabolism in dog liver microsomes assessed as unchanged parent compound at 10 uM incubated for 60 mins in presence of glutathione by LC-MS/MS analysis; assay type: ADME, Canis lupus familiaris, Microsome; conditions: read-out: Drug metabolism
LNCaP = assay: Antitumor activity against human LNCaP cells harboring AR F877L mutant xenografted in SCID mouse assessed as tumor growth inhibition at 30 mg/kg, po QD administered via gavage for 28 days and measured twice weekly relative to control; assay type: functional; conditions: time 28 day, read-out: TGI
[17] = Drug concentration in SCID mouse plasma xenografted with human LNCaP cells harboring AR F877L mutant at 30 mg/kg, po QD administered via gavage for 28 days; assay type: ADME, organism-based; conditions: time 28 day, read-out: Ct

## N#Cc1ncc(N2C(=O)C3(CCC3)N(c3ccc(OC4CCNCC4)cc3)C2=S)cc1Cl
Androgen receptor
  EC50: 45 nM
[1]
  inhibition: Active
[2]
  inhibition: Active
[3]
  clearance: 26.7 mL/min/kg
[4]
  Vd: 8.47 L/kg
[5]
  Cmax: 780 nM
[6]
  AUC(0-t): 4600 ng·h/mL
[7]
  Papp A→B: 12.2 ×10⁻⁶ cm/s
[8]
  inhibition: Active
[9]
  half-life: > 3 h
[10]
  half-life: 3.7 h
VCaP
  IC50: 503 nM
[11]
  bioavailability: 50%
[12]
  inhibition: Active
[13]
  inhibition: Active
[14]
  Imax: > 90%

## CN1CCC(Oc2ccc(N3C(=S)N(c4cnc(C#N)c(C(F)(F)F)c4)C(=O)C34CCC4)cn2)CC1
[3]
  clearance: 8.14 mL/min/kg
[4]
  Vd: 7.69 L/kg
[5]
  Cmax: 1300 nM
[6]
  AUC(0-t): 10900 ng·h/mL
[7]
  Papp A→B: 16.2 ×10⁻⁶ cm/s
[9]
  half-life: 2.88 h
[10]
  half-life: 12.5 h
VCaP
  IC50: 394 nM
[11]
  bioavailability: 56%
[14]
  Imax: > 90%

## N#Cc1ncc(N2C(=O)C3(CCC3)N(c3ccc(OC4CCNCC4)nc3)C2=S)cc1Cl
[1]
  inhibition: Active
[2]
  inhibition: Active
[3]
  clearance: 25.4 mL/min/kg
[4]
  Vd: 6.92 L/kg
[5]
  Cmax: 1880 nM
[6]
  AUC(0-t): 6000 ng·h/mL
[7]
  Papp A→B: 11.5 ×10⁻⁶ cm/s
[8]
  inhibition: Active
[9]
  half-life: > 3 h
[10]
  half-life: 4.1 h
VCaP
  IC50: 250 nM
[11]
  bioavailability: 118%
[12]
  inhibition: Active
[13]
  inhibition: Active
[14]
  Imax: > 90%

## N#Cc1ncc(N2C(=O)C3(CCC3)N(c3ccc(OC4CCNCC4)nc3)C2=S)cc1C(F)(F)F [TRC-253]
[1]
  inhibition: Active
[15]
  remaining at 1 h, 10 µM: 98.8%
[2]
  inhibition: Active
[16]
  remaining at 1 h, 10 µM: 100%
[3]
  clearance: 15 mL/min/kg
[4]
  Vd: 6.11 L/kg
LNCaP
  inhibition in vivo at 30 mg/kg: 87%
[5]
  Cmax: 660 nM
[6]
  AUC(0-t): 4900 ng·h/mL
[7]
  Papp A→B: 5.62 ×10⁻⁶ cm/s
[8]
  inhibition: Active
[17]
  concentration at […]: 1750 ng/mL
[9]
  half-life: > 3 h
[10]
  half-life: 5.99 h
VCaP
  IC50: 265 nM
[11]
  bioavailability: 45%
[12]
  inhibition: Active
[13]
  inhibition: Active
[14]
  Imax: > 90%

## CN1CCC(Oc2ncc(N3C(=S)N(c4cnc(C#N)c(C(F)(F)F)c4)C(=O)C34CCC4)cn2)CC1
[14]
  Imax: > 90%

## Cc1cc(N2C(=O)C3(CCC3)N(c3ccc(OC4CCNCC4)nc3)C2=S)cnc1C#N
[3]
  clearance: 19.4 mL/min/kg
[4]
  Vd: 4.35 L/kg
[5]
  Cmax: 1880 nM
[6]
  AUC(0-t): 7800 ng·h/mL
[7]
  Papp A→B: 3.38 ×10⁻⁶ cm/s
[9]
  half-life: > 3 h
[10]
  half-life: 3 h
VCaP
  IC50: 264 nM
[11]
  bioavailability: 92%
[14]
  Imax: > 90%

## CNC(=O)c1ccc(N2C(=S)N(c3ccc(C#N)c(C(F)(F)F)c3)C(=O)C2(C)C)cc1F [ENZALUTAMIDE]
[1]
  inhibition: Active
[2]
  inhibition: Active
[8]
  inhibition: Active
VCaP
  IC50: 149 nM
[12]
  inhibition: Active
[13]
  inhibition: Active

## N#Cc1ncc(N2C(=O)C3(CCC3)N(c3ccc(O)nc3)C2=S)cc1C(F)(F)F
[15]
  remaining at 1 h, 10 µM: 100%
[16]
  remaining at 1 h, 10 µM: 100%
[14]
  Imax: > 90%

## N#Cc1ncc(N2C(=O)C3(CCC3)N(c3ccc(CN4CCNCC4)cc3)C2=S)cc1C(F)(F)F
[1]
  inhibition: inactive
[2]
  inhibition: inactive
[3]
  clearance: 18.2 mL/min/kg
[4]
  Vd: 16.8 L/kg
[5]
  Cmax: 840 nM
[6]
  AUC(0-t): 8700 ng·h/mL
[7]
  Papp A→B: 6.31 ×10⁻⁶ cm/s
[8]
  inhibition: inactive
[9]
  half-life: > 3 h
[10]
  half-life: 12.1 h
VCaP
  IC50: 2780 nM
[11]
  bioavailability: 97%
[12]
  inhibition: inactive
[13]
  inhibition: inactive
[14]
  Imax: > 90%

## N#Cc1ncc(N2C(=O)C3(CCC3)N(c3ccc(O)cc3)C2=S)cc1C(F)(F)F
[15]
  remaining at 1 h, 10 µM: 91.9%

## COc1cc(N2C(=O)C3(CCC3)N(c3ccc(OC4CCN(C)CC4)cc3)C2=S)cnc1C#N
Androgen receptor
  EC50: 649 nM
[1]
  inhibition: Active
[2]
  inhibition: Active
[3]
  clearance: 6.9 mL/min/kg
[4]
  Vd: 3.7 L/kg
[5]
  Cmax: 2800 nM
[6]
  AUC(0-t): 20100 ng·h/mL
[8]
  inhibition: Active
[9]
  half-life: 1.9 h
[10]
  half-life: 7.8 h
VCaP
  IC50: 263 nM
[11]
  bioavailability: 87%
[12]
  inhibition: Active
[13]
  inhibition: Active
[14]
  Imax: > 90%

## N#Cc1ncc(N2C(=O)C3(CCC3)N(c3cnc(OC4CCNCC4)nc3)C2=S)cc1C(F)(F)F
[14]
  Imax: 67%
